Experimental data published in US5304540A, “Pharmaceutical bacteriocin compositions and methods for using the same” (Applied Microbiology, Inc., priority 1993, dated 1994).
Where two headings read alike, the source gives them in different places.

Columns and labels:
Escherichia coli = experiment: Germicidal suspension assay, E. coli; type: cell-based; details: for % survival at 1 min: 37° C.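 On all read-outs here: surviving cells were scored as colonies on nutrient agar after 24 h at 37° C, survival given as percent of untreated controls.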
Procedure: E. coli cells from an overnight Trypticase soy nutrient agar (TSA) were resuspended to a density measured as an absorbance of 1.0 at 600 nm in sterile ddH2 O. The reaction of the cells with each of the bactericidal test formulations analyzed was started by addition of 30 μl of cells to 970 μl of test formulation. The reaction mixture was incubated at 37° C for at least 1 minute and then centrifuged in a microfuge for 1 minute. The cell pellet was washed by resuspension in 1 ml of neutralization buffer. (The neutralization buffer: 50 mM Tris-HCl, pH 7.0, 5 mM MgSO4, 20 mM CaCl2, 0.1 M NaCl and 0.1% gelatin was prepared by first making Tris buffer and adjusting the pH. The salts and gelatin were then added and the solution stirred with heat until the solution was clear. The solution was then autoclaved for 20 min. The neutralization buffer was used without dilution.) The cells were centrifuged in a microfuge for 1 minute and resuspended in 1 ml of neutralization buffer. The viable count was determined by spreading 100 μl of bacterial suspension and serial dilutions thereof in neutralization buffer on nutrient agar and scoring surviving colonies after 24 h at 37° C. Percent survival relative to untreated controls was calculated from the scored values.

Helicobacter pylori = details: nisin 100 μg/ml where present

Compound: O=C(O)CN(CCN(CC(=O)O)CC(=O)O)CC(=O)O [EDTA]
- % survival at 1 min (Escherichia coli; 0.1% w/v acetate pH 3.5, nisin 100 μg/ml and/or EDTA 1.0 mM where present, initial 2 × 10^7 cfu/ml): 40%
- % survival at 1 min (Escherichia coli; 0.1% w/v lactate pH 3.5, nisin 100 μg/ml and/or EDTA 1.0 mM where present, initial 5 × 10^7 cfu/ml): 5.1%
- % survival at 1 min (Escherichia coli; 0.1% w/v succinate pH 3.5, nisin 100 μg/ml and/or EDTA 1.0 mM where present, initial 3.4 × 10^6 cfu/ml): 56.8%
- % survival at 1 min (Escherichia coli; 0.3% w/v acetate pH 3.5, nisin 100 μg/ml and/or EDTA 1.0 mM where present, initial 2 × 10^7 cfu/ml): 25%
- % survival at 1 min (Escherichia coli; 0.3% w/v lactate pH 3.5, nisin 100 μg/ml and/or EDTA 1.0 mM where present, initial 5 × 10^7 cfu/ml): 0.46%
- % survival at 1 min (Escherichia coli; 0.3% w/v succinate pH 3.5, nisin 100 μg/ml and/or EDTA 1.0 mM where present, initial 3.4 × 10^6 cfu/ml): 63.6%
- % survival at 1 min (Escherichia coli; 1.0% w/v acetate pH 3.5, nisin 100 μg/ml and/or EDTA 1.0 mM where present, initial 2 × 10^7 cfu/ml): 25%
- % survival at 1 min (Escherichia coli; 1.0% w/v lactate pH 3.5, nisin 100 μg/ml and/or EDTA 1.0 mM where present, initial 5 × 10^7 cfu/ml): 0.91%
- % survival at 1 min (Escherichia coli; 1.0% w/v succinate pH 3.5, nisin 100 μg/ml and/or EDTA 1.0 mM where present, initial 3.4 × 10^6 cfu/ml): 46.2%
- % survival at 1 min (Escherichia coli; 3.0% w/v acetate pH 3.5, nisin 100 μg/ml and/or EDTA 1.0 mM where present, initial 2 × 10^7 cfu/ml): 10.7%
- % survival at 1 min (Escherichia coli; 3.0% w/v lactate pH 3.5, nisin 100 μg/ml and/or EDTA 1.0 mM where present, initial 5 × 10^7 cfu/ml): 1.58%
- % survival at 1 min (Escherichia coli; 3.0% w/v succinate pH 3.5, nisin 100 μg/ml and/or EDTA 1.0 mM where present, initial 3.4 × 10^6 cfu/ml): 43.2%
- survival of E. coli on exposure to the agent by itself (Escherichia coli; agent by itself): unaffected
- % survival at 1 min (Escherichia coli; pH 2.0, 20 mM Na acetate buffer, nisin 100 μg/ml and/or EDTA 1.0 mM, initial 4 × 10^7 cfu/ml): 0.07%
- % survival at 1 min (Escherichia coli; pH 3.0, 20 mM Na acetate buffer, nisin 100 μg/ml and/or EDTA 1.0 mM, initial 4 × 10^7 cfu/ml): 5.41%
- % survival at 5 min (Helicobacter pylori; strain ATCC43504, EDTA 1.0 mM, pH 2.5, first of two experiments (initial 8.6 × 10^4 cfu/ml)): 0.023%
- % survival at 5 min (Helicobacter pylori; strain ATCC43504, EDTA 1.0 mM, pH 2.5, second of two experiments (initial 9.82 × 10^5 cfu/ml)): 0.013%
- % survival at 5 min (Helicobacter pylori; strain ATCC43504, EDTA 1.0 mM, pH 3.0, first of two experiments (initial 8.6 × 10^4 cfu/ml)): < 0.021%
- % survival at 5 min (Helicobacter pylori; strain ATCC43504, EDTA 1.0 mM, pH 3.0, second of two experiments (initial 9.82 × 10^5 cfu/ml)): < 0.001%
- % survival at 5 min (Helicobacter pylori; strain ATCC43504, EDTA 1.0 mM, pH 3.5, first of two experiments (initial 8.6 × 10^4 cfu/ml)): 94.2%
- % survival at 5 min (Helicobacter pylori; strain ATCC43504, EDTA 1.0 mM, pH 3.5, second of two experiments (initial 9.82 × 10^5 cfu/ml)): 0.015%
- % survival at 5 min (Helicobacter pylori; strain ATCC43504, EDTA 1.0 mM, pH 4.0, first of two experiments (initial 8.6 × 10^4 cfu/ml)): 11.6%
- % survival at 5 min (Helicobacter pylori; strain ATCC43504, EDTA 1.0 mM, pH 4.0, second of two experiments (initial 9.82 × 10^5 cfu/ml)): 16.5%
- % survival at 5 min (Helicobacter pylori; strain ATCC43504, EDTA 1.0 mM, pH 5.0, first of two experiments (initial 8.6 × 10^4 cfu/ml)): 10.0%
- % survival at 5 min (Helicobacter pylori; strain ATCC43504, EDTA 1.0 mM, pH 5.0, second of two experiments (initial 9.82 × 10^5 cfu/ml)): 100%
- % survival at 5 min (Helicobacter pylori; strain ATCC43526, pH 7.0, EDTA 1.0 mM, initial 3.40 × 10^4 cfu/ml): 94.1%
- % survival at 5 min (Helicobacter pylori; strain ATCC43526, pH 7.0, EDTA 10 mM, initial 3.40 × 10^4 cfu/ml): 21.0%
- % survival at 5 min (Helicobacter pylori; strain ATCC43526, pH 7.0, EDTA 100 mM, initial 3.40 × 10^4 cfu/ml): 1.62%
- % survival at 5 min (Helicobacter pylori; strain ATCC43579, pH 5.0, EDTA 1.0 mM, initial 2.04 × 10^5 cfu/ml): 13.63%
- % survival at 5 min (Helicobacter pylori; strain ATCC43579, pH 5.0, EDTA 10 mM, initial 2.04 × 10^5 cfu/ml): 8.82%
- % survival at 5 min (Helicobacter pylori; strain ATCC43579, pH 5.0, EDTA 100 mM, initial 2.04 × 10^5 cfu/ml): 0.43%
